From patent publication US9730890B2, “Bronchodilating beta-agonist compositions and methods” (Mylan Specialty L.P., priority 2003, dated 2017)

Experiment: Decomposition rate constant (kobs) of formoterol in aqueous solution
Assay type: physicochemical
Details: for rate constant (kobs) for decomposition: aqueous solution, 60° C., ionic strength 0.05
Excerpt: In the embodiments herein, the compositions have a pH of about 2.0 to about 8.0, or 2.0 to 8.0. In other embodiments, the compositions have a pH of about 4.0 to about 6.0, or 4.0 to 6.0. In other embodiments, the pH is about 4.5 to about 5.5, or 4.5 to 5.5. In certain of the above embodiments, the compositions are formulated at a pH of about 4, 4.4 or 4.6 up to about 5.5, 5.7 or 6; or 4, 4.4 or 4.6 up to 5.5, 5.7 or 6. In other embodiments, the pH is about 5.0, or 5.0. […] The rate constant (kobs) at 60° C. at a pH of 3, 4, 5 and 7 is approximately 0.62, 0.11, 0.044 and 0.55 day^-1, respectively.
In other of the above embodiments, the compositions further contain a buffer, including, but not limited to, citric acid/phosphate, acetate, barbital, borate, Britton-Robinson, cacodylate, citrate, collidine, formate, maleate, McIlvaine, phFosphate, Prideaux-Ward, succinate, citrate-phosphate-borate (Teorell-Stanhagen), veronal acetate, MES (2-(N-morpholino)ethanesulfonic acid), BIS-TRIS (bis(2-hydroxyethyl)imino-tris-(hydroxymethyl)methane), ADA (N-(2-acetamido)-2-iminodiacetic acid), ACES (N-(carbamoylmethyl)-2-aminoethanesulfonic acid), PIPES (piperazine-N,N′-bis(2-ethanesulfonic acid)), MOPSO (3-(N-morpholino)-2-hydroxypropanesulfonic acid), BISTRIS PROPANE (1,3-bis(tris(hydroxymethyl)methylamino)propane), BES (N,N-bis(2-hydroxyethyl)-2-aminoethanesulfonic acid), MOPS (3-(N-morpholino)propanesulfonic acid), TES (N-tris(hydroxymethyl)methyl-2-aminoethanesulfonic acid), HEPES (N-(2-hydroxyethyl)-piperazine-N′-(2-eth-anesulfonic acid), DIPSO (3-(N,N-bis(2-hydroxyethyl)amino)-2-hydroxypropan-esulfonic acid), MOBS (4-(N-morpholino)-butanesulfonic acid), TAPSO (3-(N-tris(hydroxymethyl)methylamino)-2-hydroxypropanesulfonic acid), TRIZMA® (tris(hydroxymethylaminomethane), HEPPSO(N-(2-hydroxyethyl)piperazine-N′-(2-hydroxypropanesulfonic acid), POPSO (piperazine-N,N′-bis(2-hydroxypropanesulfonic acid)), TEA (triethanolamine), EPPS (N-(2-hydroxyethyl)piperazine-N′-(3-propanesulfon-ic acid), TRICINE (N-tris(hydroxy-methyl)methylglycine), GLY-GLY (glycylglycine), BICINE (N,N-bis(2-hydroxyethyl)glycine), HEPBS (N-(2-hydroxyethyl)piperazine-N′-(4-butanesulfonic acid)), TAPS(N-tris(hydroxymethyl)methyl-3-aminopropanesulfonic acid), AMPD (2-amino-2-methyl-1,3-propanediol), and/or any other buffers known to those of skill in the art. In one embodiment, the buffer is citric acid/phosphate buffer, acetate buffer, citrate buffer or phosphate buffer. In another embodiment, the buffer is a citrate buffer (citric acid/sodium citrate). […] Buffer concentrations for use include from about 0 or 0.01 mM to about 150 mM, or 0 or 0.01 mM to 150 mM. In another embodiment, the buffer concentration is about 1 mM to about 20 mM, or 1 mM to 20 mM. In one embodiment, the buffer concentration is about 5 mM, or 5 mM. In other embodiments, the buffer concentration is about 1 mM to about 50 mM, or 1 mM to 50 mM. […] The particular buffer and buffer concentration of a given composition for long term storage provided herein may be determined empirically using standard stability assays well known to those of skill in the art (see, e.g., the Examples).
Ionic strengths of the compositions provided herein are from about 0 to about 0.4, or 0 to 0.4. […] The particular ionic strength of a given composition for long term storage provided herein may be determined empirically using standard stability assays well known to those of skill in the art (see, e.g., the Examples). […]

Structure (SMILES): COc1ccc(CC(C)NCC(O)c2ccc(O)c(NC=O)c2)cc1 (racemic) [formoterol, 2-hydroxy-5-((1RS)-1-hydroxy-2-(((1RS)-2-(p-methoxyphenyl)-1-methylethyl)amino)ethyl)formanilide]
- rate constant (kobs) for decomposition (pH 3, buffer concentration 5 mM): approximately 0.62 day^-1
- rate constant (kobs) for decomposition (pH 4, buffer concentration 5 mM): ~0.11 day⁻¹
- rate constant (kobs) for decomposition (pH 5, buffer concentration 5 mM): ~0.044 day⁻¹
- rate constant (kobs) for decomposition (pH 7, buffer concentration 5 mM): ~0.55 day⁻¹
- effect of buffer concentration on rate constant of decomposition (pH region of about 4.5 to about 5.5, buffer concentration from 5 mM to 20 mM): no noticeable differences in rate constant
